This is an account of results in patent publication EP1501797B1, “3-(SUBSTITUTED AMINO)-1H-INDOLE-2-CARBOXYLIC ACID ESTER AND 3-(SUBSTITUTED AMINO)-BENZO[B]THIOPHENE-2-CARBOXYLIC ACID ESTER DERIVATIVES AS INTERLEUKIN-4 GENE EXPRESSION INHIBITORS” (Aventis Pharmaceuticals Inc., priority 2002, dated 2003).

Where two headings read alike, the source gives them in different places.

The test system of one assay is IL-4 mRNA. Description: Human Th2 IL-4 transcriptional assay (Taqman, GAPDH normalised). It is filed as cell-based. The settings on record: 18 hours, stimulated CD3/CD28 = 100%. The procedure:
RNAs were isolated from the harvested cells and analyzed for IL-4 message by Taqman. GAPDH message was used as an internal standard for normalization. The percent activity was calculated by treating the values from not drug treated, anti-CD3 and anti-CD28 stimulated Th2 cells as 100%. […] In the second experiment IL-4 protein levels were also determined by standard ELISA in culture supernatants as described earlier. […]
(Real-time PCR tracks product formation cycle by cycle.)

Another assay relates to human IFN-γ promoter. The experiment in a line: IFN-γ Luc assay in Jurkat cells. It is filed as cell-based. The settings on record: Jurkat cell line; concentration not given; 480 min.
For the next assay, the system named is IL-13. The experiment in a line: In vivo ovalbumin (OVA) mouse model, BALF IL-13. On the set-up: species or system mice. The settings on record: for IL-13 pg/ml (± SEM): 30 minutes before OVA challenge, BALF 24 hours, vehicle 120.2 ± 19.8. The procedure: This model is designed to determine the ability of a test article to modulate an antigen-induced pulmonary inflammatory cell accumulation in sensitized Balb/c mice from Charles River Laboratories. The mice are given a two week time period from arrival date prior to sensitizations.
On days 0, 7, 14, each animal is injected intraperitoneal (i.p.) with a 0.2 ml Ovalbumin Hydragel solution. Each animal receives 10 µg of Ovalbumin in 0.2 mL of Hydragel, aluminum hydroxide adsorptive gel containing 2% aluminum oxide. […] On day 22, BALF samples are collected from one group of animals and used for cytokine analysis. On day 24, BALF is obtained from a second group of animals and used for differential cell counts.
Test System: Female Babl/cJ mice (Jackson Laboratories), approximately 6-9 weeks old, each weighing approximately 20 to 25 grams, are divided into ten animals per group.
Sensitization Regimen: Mice are sensitized by an intraperitoneal injection of 10 µg ovalbumin (OVA) mixed in 4 mg aluminum hydroxide Al(OH)3 gel suspension in 0.2 ml sterile saline on Days 0, 7 and 14. This suspension is prepared one hour before intraperitoneal injection into each mouse. The animals are ready for OVA challenge on Day 21.
Antigen Challenge: Animals are exposed to aerosolized OVA on day 21 (5% w/v in sterile saline) for 20 minutes. The aerosol is generated by a PARI-Master nebulizer, the outlet of which is connected to a small Plexiglas® chamber containing the animals. Bronchoalveolar lavage is performed on Day 22.
Method of Study Performance: On day 24, 72 hours following aerosol OVA exposure, a separate group of animals are anesthetized with urethane (0.15 - 0.2 gm/kg) and the trachea is exposed and cannulated. […] Total cells and eosinophils are determined using a Technicon Hl and cytoslides, respectively. […]
Mice (12 animals per group) are sensitized with 0.2 ml of an AlOH3 hydrogel suspension (2% AlOH3) containing 50 µg/ml ovalbumin on days 0, 7 and 14. […] After the OVA challenge for 24 hours, the mice underwent bronchoalveolar lavage and IL-4 and IL-13 levels in the BALF are determined by ELISA. […]

Procedure for human IFN-γ promoter: Jurkats containing 2.3IFN-γ Luc (monoclonal lines) were plated at a density of 50,000 cells in 120 µl per well, and grown for 16 hours. The cultures were then stimulated with 10 ng/ml of phorbol 12-myristate 13-acetate (PMA) and 1.0 µm calcium ionophore A23187 in 10 µl of media for 8 hours. The stimulation process was terminated by the addition of 50 µls of 1x lysis buffer (25 mM Tris Phosphate, pH 7.8, 2.0 mM DTT, 2 .0 mM EDTA, 100 ml/L glycerol, 1.0% Triton X-100 (v/v)). The cells were incubated in the presence of lysis buffer for 5 minutes, pipetted up and down, 5x, to ensure complete lysis. A 100 µl aliquot of the cell lysate was transferred to white luminometer plates (Dynatech) and assayed for luciferase activity with a Dynatech luminometer.
In order to use this assay to screen for agonists or antagonists from a chemical library, desired doses of a compound were added directly along with PMA/ A23187 mix.

One may read the ED50 as the dose at which the effect has come halfway, by size or by number of responders. Consider `O=C(O)c1[nH]c2ccccc2c1Nc1ccncc1` [Example 28, 3-(4-Pyridinylamino)-1H-indole-2-carboxylic acid], for which the mrna remaining at 10 µM in the assay on IL-4 mRNA (read-out: RNA Exp #1 % activity) is 44%; in the assay on IL-4 mRNA (read-out: RNA Exp #2 % activity), 45%. Also, the “2.7-IFN-γ -Luc (% of control)” value in the assay with human IFN-γ promoter is 100 ± 15 % of control. The “IL-13 pg/ml (± SEM)” value with IL-13 (10 mg/kg intranasal) came to 59.9 ± 12.7 pg/mL; with IL-13 (30 mg/kg intranasal), 15.1 ± 7.1 pg/mL. In addition, the ED50 in the assay on IL-13 (Mus musculus, mice, intranasally, FIG. 1, read-out: ED50, allergen-induced IL-13 levels in the BALF) was roughly 10 mg/kg.
